# Reference: ChEMBL document CHEMBL4507258 (2021)
# Assays:
# [1] = test system: Tyrosine-protein kinase ABL1 (Homo sapiens), P00519 [H396P]; settings: Compound concentration 1000.0 nM
# [2] = target: Activin receptor type-1B (Homo sapiens) (UniProt P36896); settings: Compound concentration 1000.0 nM
# [3] = target: Calcium/calmodulin-dependent protein kinase type II subunit gamma (Homo sapiens) (UniProt Q13555); settings: Compound concentration 1000.0 nM
# [4] = target: Cyclin-dependent kinase 7 (Homo sapiens) (UniProt P50613); settings: Compound concentration 1000.0 nM
# [5] = target: Cyclin-dependent kinase-like 2 (Homo sapiens) (UniProt Q92772); settings: Compound concentration 1000.0 nM
# [6] = target: Serine/threonine-protein kinase Chk1 (Homo sapiens) (UniProt O14757); settings: Compound concentration 1000.0 nM
# [7] = target: Casein kinase I isoform epsilon (Homo sapiens) (UniProt P49674); settings: Compound concentration 1000.0 nM
# [8] = target: Casein kinase I isoform gamma-1 (Homo sapiens) (UniProt Q9HCP0); settings: Compound concentration 1000.0 nM
# [9] = target: Serine/threonine-protein kinase DCLK2 (Homo sapiens) (UniProt Q8N568); settings: Compound concentration 1000.0 nM
# [10] = target: Discoidin domain-containing receptor 2 (Homo sapiens) (UniProt Q16832); settings: Compound concentration 1000.0 nM
# [11] = target: Dual specificity tyrosine-phosphorylation-regulated kinase 1A (Homo sapiens) (UniProt Q13627); settings: Compound concentration 1000.0 nM
# [12] = test system: Epidermal growth factor receptor (Homo sapiens), P00533 [UNDEFINED MUTATION]; settings: Compound concentration 1000.0 nM
# [13] = target: Ephrin type-B receptor 3 (Homo sapiens) (UniProt P54753); settings: Compound concentration 1000.0 nM
# [14] = target: Fibroblast growth factor receptor 2 (Homo sapiens) (UniProt P21802); settings: Compound concentration 1000.0 nM
# [15] = target: Tyrosine-protein kinase Fgr (Homo sapiens) (UniProt P09769); settings: Compound concentration 1000.0 nM
# [16] = test system: Receptor-type tyrosine-protein kinase FLT3 (Homo sapiens), P36888 [UNDEFINED MUTATION]; settings: Compound concentration 1000.0 nM
# [17] = test system: eIF-2-alpha kinase GCN2 (Homo sapiens), Q9P2K8 [S808G]; settings: Compound concentration 1000.0 nM
# [18] = target: Mitogen-activated protein kinase kinase kinase kinase 1 (Homo sapiens) (UniProt Q92918); settings: Compound concentration 1000.0 nM
# [19] = target: Inhibitor of nuclear factor kappa-B kinase subunit beta (Homo sapiens) (UniProt O14920); settings: Compound concentration 1000.0 nM
# [20] = target: Inhibitor of nuclear factor kappa-B kinase subunit epsilon (Homo sapiens) (UniProt Q14164); settings: Compound concentration 1000.0 nM
# [21] = test system: Mast/stem cell growth factor receptor Kit (Homo sapiens), P10721 [L576P]; settings: Compound concentration 1000.0 nM
# [22] = test system: Mast/stem cell growth factor receptor Kit (Homo sapiens), P10721 [V559D]; settings: Compound concentration 1000.0 nM
# [23] = target: Mitogen-activated protein kinase kinase kinase 13 (Homo sapiens) (UniProt O43283); settings: Compound concentration 1000.0 nM
# [24] = target: Mitogen-activated protein kinase kinase kinase 1 (Homo sapiens) (UniProt Q13233); settings: Compound concentration 1000.0 nM
# [25] = target: Hepatocyte growth factor receptor (Homo sapiens) (UniProt P08581); settings: Compound concentration 1000.0 nM
# [26] = target: MAP kinase-interacting serine/threonine-protein kinase 2 (Homo sapiens) (UniProt Q9HBH9); settings: Compound concentration 1000.0 nM
# [27] = target: Mitogen-activated protein kinase kinase kinase 10 (Homo sapiens) (UniProt Q02779); settings: Compound concentration 1000.0 nM
# [28] = target: Macrophage-stimulating protein receptor (Homo sapiens) (UniProt Q04912); settings: Compound concentration 1000.0 nM
# [29] = target: Myosin-IIIa (Homo sapiens) (UniProt Q8NEV4); settings: Compound concentration 1000.0 nM
# [30] = target: Serine/threonine-protein kinase Nek4 (Homo sapiens) (UniProt P51957); settings: Compound concentration 1000.0 nM
# [31] = target: Serine/threonine-protein kinase NLK (Homo sapiens) (UniProt Q9UBE8); settings: Compound concentration 1000.0 nM
# [32] = target: Calcium-dependent protein kinase 1 (Plasmodium falciparum) (UniProt P62344); settings: Compound concentration 1000.0 nM
# [33] = target: Phosphatidylinositol 4,5-bisphosphate 3-kinase catalytic subunit gamma isoform (Homo sapiens) (UniProt P48736); settings: Compound concentration 1000.0 nM
# [34] = target: Ribosomal protein S6 kinase alpha-4 (Homo sapiens) (UniProt O75676); settings: Compound concentration 1000.0 nM
# [35] = target: Ribosomal protein S6 kinase alpha-3 (Homo sapiens) (UniProt P51812); settings: Compound concentration 1000.0 nM
# [36] = target: Ribosomal protein S6 kinase alpha-2 (Homo sapiens) (UniProt Q15349); settings: Compound concentration 1000.0 nM
# [37] = target: STE20-like serine/threonine-protein kinase (Homo sapiens) (UniProt Q9H2G2); settings: Compound concentration 1000.0 nM
# [38] = target: SRSF protein kinase 3 (Homo sapiens) (UniProt Q9UPE1); settings: Compound concentration 1000.0 nM
# [39] = target: Mitogen-activated protein kinase kinase kinase 7 (Homo sapiens) (UniProt O43318); settings: Compound concentration 1000.0 nM
# [40] = target: Tyrosine-protein kinase Tec (Homo sapiens) (UniProt P42680); settings: Compound concentration 1000.0 nM
# [41] = target: Angiopoietin-1 receptor (Homo sapiens) (UniProt Q02763); settings: Compound concentration 1000.0 nM
# [42] = target: Serine/threonine-protein kinase 32A (Homo sapiens) (UniProt Q8WU08); settings: Compound concentration 1000.0 nM
# [43] = target: D(2) dopamine receptor (Homo sapiens) (UniProt P14416); settings: Compound concentration 10.0 uM
# [44] = target: Histamine H2 receptor (Homo sapiens) (UniProt P25021); settings: Compound concentration 10.0 uM
# [45] = target: Alpha-2B adrenergic receptor (Homo sapiens) (UniProt P18089); settings: Compound concentration 10.0 uM
# Sequence of Serine/threonine-protein kinase DCLK2 (Homo sapiens) (Q8N568 whole entry, the tested form may be a part): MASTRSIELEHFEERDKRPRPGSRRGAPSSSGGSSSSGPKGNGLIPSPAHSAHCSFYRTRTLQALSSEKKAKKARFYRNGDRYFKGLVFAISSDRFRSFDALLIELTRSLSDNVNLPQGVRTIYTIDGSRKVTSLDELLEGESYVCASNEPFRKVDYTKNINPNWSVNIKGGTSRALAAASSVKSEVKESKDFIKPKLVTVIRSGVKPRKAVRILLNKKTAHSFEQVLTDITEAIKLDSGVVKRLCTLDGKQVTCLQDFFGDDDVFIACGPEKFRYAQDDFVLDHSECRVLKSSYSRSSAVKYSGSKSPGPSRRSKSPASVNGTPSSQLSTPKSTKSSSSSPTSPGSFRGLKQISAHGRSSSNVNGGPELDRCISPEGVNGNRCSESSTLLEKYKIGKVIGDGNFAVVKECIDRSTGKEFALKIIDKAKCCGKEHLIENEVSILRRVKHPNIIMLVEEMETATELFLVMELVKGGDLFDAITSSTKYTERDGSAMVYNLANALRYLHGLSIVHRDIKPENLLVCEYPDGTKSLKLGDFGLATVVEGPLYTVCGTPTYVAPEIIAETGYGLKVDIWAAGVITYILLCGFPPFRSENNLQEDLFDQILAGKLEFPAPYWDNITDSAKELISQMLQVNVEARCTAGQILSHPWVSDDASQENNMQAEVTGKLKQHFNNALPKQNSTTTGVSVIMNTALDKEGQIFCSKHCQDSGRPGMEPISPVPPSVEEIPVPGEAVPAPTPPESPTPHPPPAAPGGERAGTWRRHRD
# Sequence of Cyclin-dependent kinase-like 2 (Homo sapiens) (Q92772 whole entry): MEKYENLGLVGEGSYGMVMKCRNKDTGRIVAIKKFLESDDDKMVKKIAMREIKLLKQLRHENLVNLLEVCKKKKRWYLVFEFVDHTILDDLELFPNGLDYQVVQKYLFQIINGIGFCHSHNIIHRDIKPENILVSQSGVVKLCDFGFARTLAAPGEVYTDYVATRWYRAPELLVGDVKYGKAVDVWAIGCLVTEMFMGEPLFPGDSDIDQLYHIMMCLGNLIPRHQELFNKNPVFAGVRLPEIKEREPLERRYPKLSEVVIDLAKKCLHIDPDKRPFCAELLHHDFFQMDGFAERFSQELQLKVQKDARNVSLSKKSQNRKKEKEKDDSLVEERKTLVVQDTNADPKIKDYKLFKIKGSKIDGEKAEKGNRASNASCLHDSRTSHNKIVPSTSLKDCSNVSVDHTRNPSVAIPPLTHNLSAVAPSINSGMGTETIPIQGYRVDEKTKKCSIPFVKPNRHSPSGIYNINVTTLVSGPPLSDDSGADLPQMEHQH
# Sequence of Receptor-type tyrosine-protein kinase FLT3 (Homo sapiens), P36888 [UNDEFINED MUTATION] (P36888 whole entry, looked up, stated change not applied): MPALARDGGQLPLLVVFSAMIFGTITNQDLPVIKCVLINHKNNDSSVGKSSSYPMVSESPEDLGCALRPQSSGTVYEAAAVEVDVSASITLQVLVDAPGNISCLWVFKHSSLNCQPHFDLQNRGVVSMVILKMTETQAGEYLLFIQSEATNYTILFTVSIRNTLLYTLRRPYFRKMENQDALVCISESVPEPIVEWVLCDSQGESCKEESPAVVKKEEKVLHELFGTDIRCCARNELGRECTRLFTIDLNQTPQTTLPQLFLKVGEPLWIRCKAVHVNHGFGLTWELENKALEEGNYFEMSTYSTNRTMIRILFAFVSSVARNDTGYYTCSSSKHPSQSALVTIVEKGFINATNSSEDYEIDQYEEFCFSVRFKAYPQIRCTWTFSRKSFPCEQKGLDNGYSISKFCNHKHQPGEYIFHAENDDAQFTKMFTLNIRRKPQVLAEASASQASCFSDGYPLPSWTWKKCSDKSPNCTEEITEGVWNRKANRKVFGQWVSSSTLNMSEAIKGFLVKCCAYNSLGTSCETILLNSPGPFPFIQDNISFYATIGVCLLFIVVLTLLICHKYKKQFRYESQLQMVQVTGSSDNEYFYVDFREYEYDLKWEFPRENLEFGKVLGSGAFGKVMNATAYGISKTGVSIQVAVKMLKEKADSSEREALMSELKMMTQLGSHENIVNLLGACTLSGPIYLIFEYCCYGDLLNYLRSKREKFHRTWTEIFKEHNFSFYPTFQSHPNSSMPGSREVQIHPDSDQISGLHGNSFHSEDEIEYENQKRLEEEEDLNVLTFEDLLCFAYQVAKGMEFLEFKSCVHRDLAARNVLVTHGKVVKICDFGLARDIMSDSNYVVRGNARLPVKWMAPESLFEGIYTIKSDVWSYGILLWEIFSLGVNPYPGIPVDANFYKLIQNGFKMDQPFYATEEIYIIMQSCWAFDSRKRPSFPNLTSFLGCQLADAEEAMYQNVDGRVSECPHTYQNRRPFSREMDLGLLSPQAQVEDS
# Sequence of Ephrin type-B receptor 3 (Homo sapiens) (P54753 whole entry): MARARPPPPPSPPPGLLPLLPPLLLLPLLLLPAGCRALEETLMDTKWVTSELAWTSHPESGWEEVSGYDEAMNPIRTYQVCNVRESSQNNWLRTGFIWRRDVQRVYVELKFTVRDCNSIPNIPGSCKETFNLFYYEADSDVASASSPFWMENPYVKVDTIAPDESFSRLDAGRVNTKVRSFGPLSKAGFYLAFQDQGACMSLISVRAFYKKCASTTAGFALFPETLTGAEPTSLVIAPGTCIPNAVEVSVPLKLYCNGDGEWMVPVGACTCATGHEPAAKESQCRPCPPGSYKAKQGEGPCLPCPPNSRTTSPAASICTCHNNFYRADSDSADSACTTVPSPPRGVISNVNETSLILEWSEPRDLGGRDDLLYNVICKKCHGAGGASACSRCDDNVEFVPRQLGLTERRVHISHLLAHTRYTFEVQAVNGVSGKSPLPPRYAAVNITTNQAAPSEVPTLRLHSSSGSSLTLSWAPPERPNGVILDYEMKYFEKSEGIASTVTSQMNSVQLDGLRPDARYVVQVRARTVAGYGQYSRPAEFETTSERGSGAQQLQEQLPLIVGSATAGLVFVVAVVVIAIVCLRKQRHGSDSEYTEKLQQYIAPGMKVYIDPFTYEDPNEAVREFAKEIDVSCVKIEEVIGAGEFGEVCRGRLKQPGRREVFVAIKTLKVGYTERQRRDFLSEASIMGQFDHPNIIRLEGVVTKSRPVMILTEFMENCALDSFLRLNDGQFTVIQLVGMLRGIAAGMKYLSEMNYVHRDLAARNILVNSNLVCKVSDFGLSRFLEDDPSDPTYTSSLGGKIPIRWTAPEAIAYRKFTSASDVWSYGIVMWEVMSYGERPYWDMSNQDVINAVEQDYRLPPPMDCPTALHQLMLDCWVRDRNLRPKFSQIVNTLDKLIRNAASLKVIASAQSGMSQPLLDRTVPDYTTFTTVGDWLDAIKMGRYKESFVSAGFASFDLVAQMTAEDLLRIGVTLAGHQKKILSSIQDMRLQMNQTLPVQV
# Sequence of SRSF protein kinase 3 (Homo sapiens) (Q9UPE1 whole entry): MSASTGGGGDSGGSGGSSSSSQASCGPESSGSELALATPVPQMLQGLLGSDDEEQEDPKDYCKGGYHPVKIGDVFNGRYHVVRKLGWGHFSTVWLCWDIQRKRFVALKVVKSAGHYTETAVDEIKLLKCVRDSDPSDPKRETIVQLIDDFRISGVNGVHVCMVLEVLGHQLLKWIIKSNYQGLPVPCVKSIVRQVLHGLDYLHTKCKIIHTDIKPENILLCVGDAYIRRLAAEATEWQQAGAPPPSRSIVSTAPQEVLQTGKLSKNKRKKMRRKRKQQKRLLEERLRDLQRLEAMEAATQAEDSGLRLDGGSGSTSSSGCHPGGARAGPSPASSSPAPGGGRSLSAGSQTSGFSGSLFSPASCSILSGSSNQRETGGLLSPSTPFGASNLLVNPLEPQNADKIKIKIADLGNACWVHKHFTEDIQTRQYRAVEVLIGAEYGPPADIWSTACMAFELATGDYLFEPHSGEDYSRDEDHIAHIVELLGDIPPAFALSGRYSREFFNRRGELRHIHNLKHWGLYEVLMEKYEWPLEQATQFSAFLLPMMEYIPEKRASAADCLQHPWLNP
# Sequence of STE20-like serine/threonine-protein kinase (Homo sapiens) (Q9H2G2 whole entry, looked up): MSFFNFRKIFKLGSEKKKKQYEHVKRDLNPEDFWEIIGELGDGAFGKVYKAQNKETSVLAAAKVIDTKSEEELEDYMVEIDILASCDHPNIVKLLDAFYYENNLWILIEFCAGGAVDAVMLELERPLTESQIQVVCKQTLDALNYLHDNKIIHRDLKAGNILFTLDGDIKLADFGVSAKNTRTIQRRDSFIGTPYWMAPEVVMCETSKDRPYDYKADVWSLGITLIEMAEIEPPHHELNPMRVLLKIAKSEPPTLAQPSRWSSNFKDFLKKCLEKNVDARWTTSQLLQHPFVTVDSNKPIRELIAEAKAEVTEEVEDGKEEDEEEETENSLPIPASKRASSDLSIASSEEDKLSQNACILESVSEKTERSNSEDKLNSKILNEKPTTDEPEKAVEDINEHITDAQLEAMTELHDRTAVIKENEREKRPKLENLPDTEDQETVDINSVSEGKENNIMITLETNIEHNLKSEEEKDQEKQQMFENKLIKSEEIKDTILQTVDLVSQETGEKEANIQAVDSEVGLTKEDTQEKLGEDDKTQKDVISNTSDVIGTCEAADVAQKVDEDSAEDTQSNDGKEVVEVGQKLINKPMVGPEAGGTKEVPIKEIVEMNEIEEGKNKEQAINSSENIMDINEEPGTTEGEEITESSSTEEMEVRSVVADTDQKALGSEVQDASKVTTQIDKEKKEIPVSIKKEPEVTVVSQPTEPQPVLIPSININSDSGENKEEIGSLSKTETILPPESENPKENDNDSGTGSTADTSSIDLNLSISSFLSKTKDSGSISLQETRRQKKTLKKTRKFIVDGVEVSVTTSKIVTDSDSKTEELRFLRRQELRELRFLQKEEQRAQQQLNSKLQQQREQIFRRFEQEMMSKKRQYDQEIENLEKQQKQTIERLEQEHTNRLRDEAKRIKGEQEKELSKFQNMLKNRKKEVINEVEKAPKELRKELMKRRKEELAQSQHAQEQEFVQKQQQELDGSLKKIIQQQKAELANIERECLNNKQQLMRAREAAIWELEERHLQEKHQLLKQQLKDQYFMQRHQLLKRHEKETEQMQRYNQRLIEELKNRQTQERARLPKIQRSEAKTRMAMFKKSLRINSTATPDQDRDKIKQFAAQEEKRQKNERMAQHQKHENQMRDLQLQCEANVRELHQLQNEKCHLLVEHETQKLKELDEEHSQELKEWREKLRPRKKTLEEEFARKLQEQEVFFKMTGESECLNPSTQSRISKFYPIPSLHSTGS
structure (smiles),measurement,setting,value
CCCCN(CCCC)C(=O)CN1C[C@@H](c2cc(OC)c3c(c2)OCO3)[C@H](C(=O)O)[C@H]1CC(C)(C)CCC [A-545],residual activity,[1],89.4%
same,residual activity,[2],96.4%
same,residual activity,[3],94.3%
same,residual activity,[4],89.5%
same,residual activity,[5],39.2%
same,residual activity,[6],100%
same,residual activity,[7],100%
same,residual activity,[8],100%
same,residual activity,[9],87.4%
same,residual activity,[10],99.1%
same,residual activity,[11],96.3%
same,residual activity,[12],75.9%
same,residual activity,[13],100%
same,residual activity,[14],83.2%
same,residual activity,[15],92.4%
same,residual activity,[16],97.4%
same,residual activity,[17],100%
same,residual activity,[18],99.6%
same,residual activity,[19],100%
same,residual activity,[20],89.7%
same,residual activity,[21],100%
same,residual activity,[22],100%
same,residual activity,[23],100%
same,residual activity,[24],100%
same,residual activity,[25],100%
same,residual activity,[26],96.5%
same,residual activity,[27],65.4%
same,residual activity,[28],100%
same,residual activity,[29],100%
same,residual activity,[30],93.9%
same,residual activity,[31],100%
same,residual activity,[32],86.9%
same,residual activity,[33],90.8%
same,residual activity,[34],100%
same,residual activity,[35],99.2%
same,residual activity,[36],84.7%
same,residual activity,[37],92.5%
same,residual activity,[38],100%
same,residual activity,[39],84.7%
same,residual activity,[40],100%
same,residual activity,[41],100%
same,residual activity,[42],100%
same,inhibition,[43],21.3%
same,inhibition,[44],8.46%
same,inhibition,[45],50%
CCCCN(CCCC)C(=O)CN1C[C@H](c2cc(OC)c3c(c2)OCO3)[C@@H](C(=O)O)[C@@H]1CC(C)(C)CCC [ABT-546],residual activity,[1],96.3%
same,residual activity,[2],96.4%
same,residual activity,[3],100%
same,residual activity,[4],100%
same,residual activity,[5],100%
same,residual activity,[6],100%
same,residual activity,[7],100%
same,residual activity,[8],100%
same,residual activity,[9],100%
same,residual activity,[10],76.6%
same,residual activity,[11],73.1%
same,residual activity,[12],79.8%
same,residual activity,[13],100%
same,residual activity,[14],100%
same,residual activity,[15],100%
same,residual activity,[16],46.4%
same,residual activity,[17],100%
same,residual activity,[18],90.6%
same,residual activity,[19],81.5%
same,residual activity,[20],80.9%
same,residual activity,[21],100%
same,residual activity,[22],96.1%
same,residual activity,[23],89.3%
same,residual activity,[24],100%
same,residual activity,[25],100%
same,residual activity,[26],83%
same,residual activity,[27],97%
same,residual activity,[28],100%
same,residual activity,[29],100%
same,residual activity,[30],85%
same,residual activity,[31],100%
same,residual activity,[32],82%
same,residual activity,[33],76.9%
same,residual activity,[34],100%
same,residual activity,[35],100%
same,residual activity,[36],100%
same,residual activity,[37],100%
same,residual activity,[38],100%
same,residual activity,[39],85.5%
same,residual activity,[40],100%
same,residual activity,[41],90.5%
same,residual activity,[42],100%
same,inhibition,[43],21.3%
same,inhibition,[44],24.3%
same,inhibition,[45],9.73%
